Consider one molecule from paper PMC12903969, “Discovery of a Novel and Potent Kir4.1 Inhibitor as a Safe and Rapid‐Onset Antidepressant Agent in Mice” (Advanced Science, 2025).

The test system of data set [1] is Kir4.1 cKO astrocytes. Kind of data set: Patch clamp of Kir4.1 cKO primary astrocytes. To be noted: tamoxifen-treated Kir4.1 cKO astrocytes, 3 µM. Type of data set: cell-based, mouse. As for the experimental part:
Astrocytes were isolated and cultured as previously described.^[ [16] ^] Briefly, the cortices from P1‐P4 mouse pups were dissected and incubated for 25 min in Hank's Balanced Salt Solution (22.5 ml) with 2.5% trypsin (2.5 ml) at 37 °C. Cells were dissociated in cultured medium (DMEM/F12 supplemented with 10% fetal bovine serum and 1% penicillin and streptomycin) and filtered with a 70‐µm cell strainer. Cell suspensions were cultured in PDL‐pretreated 75‐cm^2 flasks for the initial seven days, with half of the medium replaced every 2 days. Subsequently, the cultures were shaken at 220 rpm for 6 h at 37 °C to remove microglia and oligodendrocytes from the astrocyte layers. […]
(§1) Whole‐cell patch‐clamp recordings were obtained either in transiently transfected CHO‐K1 cells or in primary cultured astrocytes at room temperature using standard patch‐clamp techniques with an Axopatch‐700B amplifier (Axon Instruments). […] Macroscopic currents generated by expressed potassium channels were recorded under the voltage‐clamp conditions with an internal pipette solution composed of (in mM): 140 KCl, 5 NaCl, 1 CaCl2, 1 MgCl2, 10 HEPES, and 10 EGTA, pH 7.2 adjusted with KOH. […] Astrocytic resting membrane potentials were recorded under current‐clamp conditions (I = 0 pA) using standard internal and external solutions, determined immediately after achieving whole‐cell mode.

Data set [2] addresses T1, 5-HT2B receptor (Homo sapiens, UniProt P41595).
T1 construct: expressed in transfected cells
Kind of data set: 5-HT2B functional assay (Fluo-4 calcium, FDSS). Type of data set: cell-based. Here is the method:
Cells with inducible expression of target receptor were cultured in 175‐cm^2 flasks until ≈80% confluence, washed once with phosphate‐buffered saline (PBS), and dissociated using 0.25% trypsin–EDTA. After neutralization with culture medium and centrifugation (800 rpm, 3 min), the cells were resuspended, counted, and seeded onto poly‐D‐lysine‐coated 96‐well black plates at a density of 4 × 10^4 cells/well. Expression of the target receptor was induced with 1 µg mL^−1 doxycycline. After 30 min at room temperature, the plates were incubated at 37 °C, 5% CO2 for 18−24 h until reaching ≈90% confluence. The medium was replaced with Ca^2⁺‐free extracellular buffer, washed once, and incubated with Fluo‐4 AM for 60 min at 37 °C in the dark. After washing twice with extracellular buffer, extracellular buffer was added (80 µL/well), and the cells were incubated for an additional 20 min at room temperature before fluorescence recording. Real‐time fluorescence changes were recorded using an FDSS/µCell system at 480 nm excitation and 540 nm emission with a sampling rate of 1 Hz. After a 10‐s baseline, the test compounds were added (20 µL/well), and fluorescence was recorded for 180 s. Subsequently, […] was added (20 µL/well), and the signals were monitored for a total of 360 s.
The agonistic effect (%) of compounds was calculated as follows: (1) Agonist%=Rcompound−Rcontrol/Rcontrol×100% where R control is the maximal fluorescence ratio after the addition of 0.5% DMSO and R compoundis the ratio obtained after compound treatment. Fluorescence response curves and EC50 values were used to evaluate the agonistic potency. The extracellular (Ca^2+‐free) buffer contained (in mM): 140 NaCl, 5 KCl, 1 MgCl2, 10 glucose, 10 HEPES, 2 probenecid; pH adjusted to 7.4 with NaOH.

The test system of data set [3] is C57BL/6J mice. Kind of data set: Seizure threshold measurement in maximal electroshock (MES). Type of data set: in vivo. More on the design: seizure incidence, Single dose-MES / seizure incidence, Multiple dose-MES: unit not given here. The following applies: for seizure incidence, Multiple dose-MES / seizure incidence, Single dose-MES: JX3212 10 mpk. As for the experimental part:
Male C57BL/6J mice underwent corneal electroshock stimulation using an Orchid Scientifics EC‐02 stimulator with a fixed pulse duration of 0.2 s. The current intensity was titrated in a stepwise manner (0.1 mA increments) based on real‐time behavioral responses during serial testing. Seizure severity was quantified using the hindlimb tonic extension score, with rigorous blinding applied to the vehicle‐ and JX3212‐treated groups. Subsequently, CS50 values were determined.

In data set [4] the target is T2, Kir4.1 T155A (Homo sapiens, UniProt P78508, T155A).
T2 construct: expressed in transfected cells; host or cells: CHO-K1
T2 sequence (P78508 whole entry T155A): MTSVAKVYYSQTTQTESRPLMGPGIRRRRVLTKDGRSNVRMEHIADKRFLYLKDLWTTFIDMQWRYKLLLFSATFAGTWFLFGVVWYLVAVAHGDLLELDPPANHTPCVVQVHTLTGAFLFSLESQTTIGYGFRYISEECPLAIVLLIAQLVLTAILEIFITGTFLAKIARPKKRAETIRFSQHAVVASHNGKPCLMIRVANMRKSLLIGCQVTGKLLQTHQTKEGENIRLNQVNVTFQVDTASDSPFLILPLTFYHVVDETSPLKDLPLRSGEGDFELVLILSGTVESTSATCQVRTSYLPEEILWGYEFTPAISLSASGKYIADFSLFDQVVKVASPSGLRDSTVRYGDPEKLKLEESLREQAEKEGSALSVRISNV
Kind of data set: Whole-cell patch clamp, Kir4.1 point mutant T155A. Type of data set: cell-based. To be noted: JX3212 3 µM (Fig 2D). As for the experimental part:
Plasmids encoding WT human potassium channels Kir1.1, Kir2.1, Kir2.2, Kir4.1, and Kir4.2 were obtained from the Beijing Genomics Institute. All point mutations were constructed using the QuickChange II Site‐Directed Mutagenesis Kit (Stratagene) and subsequently verified by sequencing.
CHO‐K1 cells were maintained in DMEM/F12 growth medium containing 10% fetal bovine serum. Plasmids encoding the target genes (3600 ng) and enhanced green fluorescent protein (400 ng) were cotransfected into cells using Lipofectamine 2000 (Invitrogen) in accordance with the manufacturer's instructions. Cells were seeded onto poly‐d‐lysine (PDL)‐coated glass coverslips 1 h prior to electrophysiological recordings. […]
as §1

Values joined by “and” are separate entries in the source; they are usually repeats but may differ in a detail not shown here. Identical values can stand only once.

T1 sequence (P41595 whole entry): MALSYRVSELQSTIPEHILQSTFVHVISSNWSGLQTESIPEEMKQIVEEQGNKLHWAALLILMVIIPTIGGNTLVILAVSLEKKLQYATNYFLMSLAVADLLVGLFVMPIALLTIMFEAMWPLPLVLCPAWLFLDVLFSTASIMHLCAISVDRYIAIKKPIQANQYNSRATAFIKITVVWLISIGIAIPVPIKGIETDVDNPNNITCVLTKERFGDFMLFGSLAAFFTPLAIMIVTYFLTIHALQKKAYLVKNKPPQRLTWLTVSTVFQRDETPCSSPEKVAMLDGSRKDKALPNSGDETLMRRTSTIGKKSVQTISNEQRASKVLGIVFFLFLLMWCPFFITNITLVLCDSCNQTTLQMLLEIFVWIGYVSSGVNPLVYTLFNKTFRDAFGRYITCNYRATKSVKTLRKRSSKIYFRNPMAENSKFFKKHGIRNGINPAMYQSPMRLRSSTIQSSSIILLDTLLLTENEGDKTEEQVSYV

The term EC50 denotes the concentration that produces a half-maximal response. One may read the inhibition as the relative decrease from the control value, in per cent. As for `c1ccc2c(c1)oc1ccc(Nc3ccnc(NCCCN4CCOCC4)n3)cc12` [JX3212, N^4-(dibenzo[b,d]furan-2-yl)-N^2-(3-morpholinopropyl)pyrimidine-2,4-diamine], the “JX3212-induced effects in Kir4.1 cKO astrocytes (in words)” value in data set [1] was “abolished”. Further, the EC50 in data set [2] (agonistic effect) was more than 60 µM. The activation at 60 µM in data set [2] (read-out: 5-HT2B agonistic effect, replicates, concentration 60 (presumably µM)) came to 55.2%. Further, the Emax in data set [2] (read-out: 5-HT2B max activation%) was found to be 62.4%. Also, the “seizure susceptibility, maximal electronic seizure model (in words)” value in data set [3] (10 mg kg−1, single or 14-day consecutive administration) is “did not alter seizure susceptibility”. Also, the “seizure incidence, Multiple dose-MES” value is given as 0 in data set [3] (stimulus 0.45 mA), 12.5 in data set [3] (stimulus 0.55 mA), 50 in data set [3] (stimulus 0.65 mA) and 87.5 in data set [3] (stimulus 0.75 mA). Besides, the “seizure incidence, Single dose-MES” value in data set [3] (stimulus 0.45 mA) was determined as 0; in data set [3] (stimulus 0.55 mA), 37.5; in data set [3] (stimulus 0.65 mA), 50; in data set [3] (stimulus 0.75 mA) it was 75. Besides, the “Mutation: T155A inhibition, single recordings” value in data set [4] was 94.2403 and 81.3915 and 95.4304. Moreover, the inhibition at 3 µM in data set [4] (read-out: Mutation: T155A inhibition, single recordings) turned out to be 94.3%.
